# Read-outs that look alike come from different tables or passages of the source.
# What was measured:
# Format in all cases: cell-based
# [1] = test system: MCF-7 cells (negative control); assay: MCF-7 Stable Cell Line Viability (UbC HA-ER-α series); settings: for EC50: Homo sapiens
# From the text: (§1) MCF-7 Mutant ER-α Stable Cell Line Generation: MCF-7 cells stably expressing wild-type or ER-α mutants were generated by subcloning ESR1 wild-type and mutant cDNAs containing an amino terminal hemagglutinin tag into pCDH-EF1-MCS-(PGK-Puro) (referred to as EF1 HA-ER-α) and pCDH-UbC-MCS-EF1-Hygro (referred to as UbC HA-ER-α) (System Biosciences). The resulting plasmids, in addition to an empty vector negative control, were subsequently cotransfected into HEK293T cells with the pPACKH1 packaging plasmid mix (System Biosciences) according to the manufacturer's protocol. Four days post transfection lentiviral particles were purified from the cell medium, tiered and stored at −80° C. MCF-7 cells were transduced with the purified viral particles and stable cell lines were selected by growth in RPMI containing 10% FBS plus 1 μG/mL puromycin or 200 μG/mL hygromycin for pCDH-EF1-MCS-(PGK-Puro) and pCDH-UbC-MCS-EF1-Hygro, respectively.
# (§2) MCF-7 Stable Cell Line Viability: MCF-7 cells were enumerated with a hemacytometer adjusted to a concentration of 40,000 cells per mL in Phenol Free RPMI containing 10% CSS with NEAA and Sodium Pyruvate. 16 microliters of the cell suspension was added to each well of a 384 well tissue culture treated white clear bottom polystyrene plate (Corning) using a Matrix 16 channel electronic pipette. The cells were incubated overnight to allow the cells to adhere. The following day, 16 microliters of Phenol Free RPMI containing 10% CSS with NEAA and Sodium Pyruvate was added to the wells of one plate, followed by 16 μL of CellTiter-Glo (Promega, Madison Wis.) luminescent cell viability reagent using a Matrix 16 channel electronic pipette. […] The “average” of the relative luminescence units (RLUs) of the wells are considered to be the baseline value at time=zero. In addition, a 10 point, 1:5 serial dilution in DMSO (Sigma-Aldrich) was performed using Matrix 12 channel electronic pipette, including DMSO only as […]. 4 μL of each dilution was then added to 196 μL of RPMI containing 10% CSS with NEAA and Sodium Pyruvate. 16 μL of medium containing compound was added to the cells at a final concentration ranging from 10 μM to 5 pM. Compound dilution in media and subsequent addition to cells were carried out using Matrix 12 channel electronic pipettes. After 5 day compound exposure, 16 μL of CellTiter-Glo (Promega, Madison Wis.) luminescent cell viability reagent was added to the cells using a Matrix 16 channel electronic pipette. CellTiter-Glo added to 32 μL of medium without cells was used to obtain a background value. […] The relative luminescence units (RLUs) of each well were measured, and relative proliferation (fold) of each sample was determined as follows: (RLU sample−RLU background)/(RLU at T=0)=relative proliferation
# (§3) The UbC promoter is reported by the manufacturer (System Biosciences) to express low to moderate RNA levels while the EF1 promoter expresses high levels (System Biosciences).
# [2] = test system: MCF-7 cells stably expressing UbC HA-ER-α wild-type; assay: as above; settings: UbC HA-ER-α Wild-type; for EC50: Homo sapiens, MCF7, read-out: Potency (EC50; nM); for Efficacy (Emax): Day 5 relative to Day 0; for Percent inhibition compared to vehicle: 5-Day Incubation
# From the text: as §1, §2, §3
# [3] = test system: MCF-7 cells stably expressing EF1 HA-ER-α L536P; assay: cells; settings: EF1 HA-ER-α L536P; for Efficacy (Emax): Day 5 relative to Day 0; for Percent inhibition compared to vehicle: 5-Day Incubation; for EC50: Homo sapiens, MCF7, read-out: Potency (EC50; nM)
# From the text: as §1, §2, §3
# [4] = test system: MCF-7 cells stably expressing EF1 HA-ER-α Y537N; assay: cells; settings: EF1 HA-ER-α Y537N; for Efficacy (Emax): Day 5 relative to Day 0; for EC50: Homo sapiens, MCF7, read-out: Potency (EC50; nM)
# From the text: as §1, §2, §3
# [5] = test system: MCF-7 cells stably expressing UbC HA-ER-α L536P; assay: cells; settings: for EC50: Homo sapiens, MCF7, read-out: Potency (EC50; nM)
# From the text: as §1, §2, §3
# [6] = test system: MCF-7 cells stably expressing EF1 HA-ER-α wild-type; assay: MCF-7 Stable Cell Line Viability (EF1 HA-ER-α series); parameters: Percent inhibition compared to vehicle: concentration or dose not given beside the values; settings: EF1 HA-ER-α Wild-type; for Efficacy (Emax): Day 5 relative to Day 0; for EC50: Homo sapiens, MCF7, read-out: Potency (EC50; nM); for Percent inhibition compared to vehicle: 5-Day Incubation
# From the text: as §1, §2, §3
# [7] = test system: MCF-7 cells transduced with an empty EF1 lentiviral vector (negative control); assay: as above; parameters: Percent inhibition compared to vehicle: concentration or dose not given beside the values; settings: for EC50: Homo sapiens, MCF7, Receptor None (empty EF1 lentiviral vector), read-out: Potency (EC50; nM); for Efficacy (Emax) / Percent inhibition compared to vehicle: Receptor None (empty EF1 lentiviral vector); for Efficacy (Emax): Day 5 relative to Day 0; for Percent inhibition compared to vehicle: 5-Day Incubation
# From the text: as §1, §2, §3
# [8] = Receptor None (MCF-7 negative control), Agonist Mode, −E2, Day 5 relative to Day 0
# [9] = Agonist Mode, −E2, Day 5 relative to Day 0
# [10] = Antagonist Mode, +E2, Day 5 relative to Day 0
# [11] = Antagonist Mode, −E2 (Table 27)
# [12] = Antagonist Mode, +E2, 5-Day Incubation
compound,measurement,setting,value
C[C@]12CC[C@@H]3c4ccc(O)cc4CC[C@H]3[C@@H]1CC[C@@H]2O [17β-Estradiol],EC50,"[1]; MCF7, Receptor None (MCF-7 negative control), Agonist Mode, −E2, read-out: Potency (EC50; nM)",0.279 ± 0.518 nM
same,Efficacy (Emax),[1]; [8],4.12 ± 0.88
same,EC50,"[2]; Agonist Mode, −E2",0.101 ± 0.16 nM
same,Efficacy (Emax),"[2]; Agonist Mode, −E2",4.43 ± 0.88
same,Efficacy (Emax),"[2]; Antagonist Mode, +E2",5.12 ± 1.52
same,Efficacy (Emax),"[3]; Agonist Mode, −E2",8.49 ± 0.94
same,Efficacy (Emax),"[3]; Antagonist Mode, +E2",9.07 ± 0.12
same,Efficacy (Emax),"[4]; Agonist Mode, −E2",5.52 ± 0.43
same,Efficacy (Emax),[5]; [9],5.06 ± 0.76
same,Efficacy (Emax),[5]; [10],5.66 ± 0.52
same,EC50,"[5]; Agonist Mode, −E2",0.212 ± 0.401 nM
same,Efficacy (Emax),"[6]; Agonist Mode, −E2",7.35 ± 1.28
same,Efficacy (Emax),"[6]; Antagonist Mode, +E2",6.67 ± 1.25
same,EC50,"[6]; Agonist Mode, −E2",0.518 ± 0.699 nM
same,EC50,[6]; [11],0.518 ± 0.699 nM
same,EC50,"[7]; Agonist Mode, −E2",0.02 ± 0.001 nM
same,EC50,[7]; [11],0.02 ± 0.001 nM
same,Efficacy (Emax),"[7]; Antagonist Mode, +E2",4.24 ± 0.90
C[C@]12CC[C@@H]3c4ccc(O)cc4C[C@@H](CCCCCCCCC[S+]([O-])CCCC(F)(F)C(F)(F)F)[C@H]3[C@@H]1CC[C@@H]2O (stereo partly drawn) [Fulvestrant],EC50,"[1]; MCF7, read-out: Potency (EC50; nM), Receptor None (MCF-7 negative control), Agonist Mode, −E2",0.05 ± 0.017 nM
same,EC50,"[1]; MCF7, read-out: Potency (EC50; nM), Receptor None (MCF-7 negative control), Antagonist Mode, +E2",0.327 ± 0.324 nM
same,Percent inhibition compared to vehicle,"[1]; Receptor None (MCF-7 negative control), Agonist Mode, −E2, 5-Day Incubation",28%
same,Efficacy (Emax),[1]; [8],1.27 ± 0.24
same,Percent inhibition compared to vehicle,"[1]; Receptor None (MCF-7 negative control), Antagonist Mode, +E2, 5-Day Incubation",64%
same,Efficacy (Emax),"[1]; Receptor None (MCF-7 negative control), Antagonist Mode, +E2, Day 5 relative to Day 0",1.15 ± 0.01
same,EC50,"[2]; Agonist Mode, −E2",0.08 ± 0.042 nM
same,EC50,"[2]; Antagonist Mode, +E2",0.516 ± 0.479 nM
same,Percent inhibition compared to vehicle,"[2]; Agonist Mode, −E2",37%
same,Efficacy (Emax),"[2]; Agonist Mode, −E2",1.17 ± 0.13
same,Percent inhibition compared to vehicle,"[2]; Antagonist Mode, +E2",75%
same,Efficacy (Emax),"[2]; Antagonist Mode, +E2",1.23 ± 0.09
same,Percent inhibition compared to vehicle,"[3]; Agonist Mode, −E2",56%
same,Efficacy (Emax),"[3]; Agonist Mode, −E2",3.58 ± 0.10
same,Percent inhibition compared to vehicle,"[3]; Antagonist Mode, +E2",60%
same,Efficacy (Emax),"[3]; Antagonist Mode, +E2",3.65 ± 0.56
same,EC50,"[3]; Agonist Mode, −E2",4.51 ± 0.313 nM
same,EC50,"[3]; Antagonist Mode, +E2",16.4 ± 8.21 nM
same,EC50,[3]; [11],4.51 ± 0.313 nM
same,Efficacy (Emax),"[4]; Agonist Mode, −E2",0.52 ± 0.09
same,Percent inhibition compared to vehicle,[4]; [12],90%
same,Efficacy (Emax),"[4]; Antagonist Mode, +E2",0.56 ± 0.02
same,EC50,"[4]; Agonist Mode, −E2",9.26 ± 2.39 nM
same,EC50,"[4]; Antagonist Mode, +E2",12.4 ± 3.52 nM
same,EC50,[4]; [11],9.26 ± 2.39 nM
same,Percent inhibition compared to vehicle,"[5]; Agonist Mode, −E2, 5-Day Incubation",47%
same,Efficacy (Emax),[5]; [9],1.66 ± 0.11
same,Percent inhibition compared to vehicle,[5]; [12],71%
same,Efficacy (Emax),[5]; [10],1.73 ± 0.08
same,EC50,"[5]; Agonist Mode, −E2",0.298 ± 0.132 nM
same,EC50,"[5]; Antagonist Mode, +E2",2.59 ± 2.58 nM
same,Percent inhibition compared to vehicle,"[6]; Agonist Mode, −E2",63%
same,Efficacy (Emax),"[6]; Agonist Mode, −E2",2.12 ± 0.23
same,Percent inhibition compared to vehicle,"[6]; Antagonist Mode, +E2",70%
same,Efficacy (Emax),"[6]; Antagonist Mode, +E2",2.04 ± 0.10
same,EC50,"[6]; Agonist Mode, −E2",0.895 ± 0.173 nM
same,EC50,"[6]; Antagonist Mode, +E2",3.97 ± 0.955 nM
same,EC50,[6]; [11],0.895 ± 0.173 nM
same,EC50,"[7]; Agonist Mode, −E2",0.178 ± 0.129 nM
same,EC50,"[7]; Antagonist Mode, +E2",1.44 ± 0.156 nM
same,EC50,[7]; [11],0.178 ± 0.129 nM
same,Percent inhibition compared to vehicle,"[7]; Agonist Mode, −E2",51%
same,Efficacy (Emax),"[7]; Agonist Mode, −E2",1.09 ± 0.16
same,Percent inhibition compared to vehicle,"[7]; Antagonist Mode, +E2",74%
same,Efficacy (Emax),"[7]; Antagonist Mode, +E2",1.04 ± 0.15

# — patent US9855270B2, “Methods and compositions for modulating estrogen receptor mutants” (priority 2014, dated 2018)
